These results are taken from patent US9695438B2, “Wheat plants having increased resistance to imidazolinone herbicides” (University of Saskatchewan, priority 2001, dated 2017).

For one test, the system named is Nicotiana tabacum plants. To be noted: plants homozygous for both mutations versus plants homozygous for each single mutation; cited from earlier work.
Test [1] has as its system wheat genotypes (BW755, Teal15A, 15A/11A). In words: Injury of wheat genotypes treated with 10× or 30× rate of imazamox. Format: in vivo, Triticum aestivum. From the text:
FIG. 7 is a table comparing injury sustained by three wheat genotypes when treated with either a 10× or 30× rate of imazamox. The 1× rate is 20 g/ha. BW755 contains the FS4 mutant gene. 15A/11A is a bulk of selfed progeny from the cross of Teal11A and Teal15A. The population was not yet homozygous at all three non-allelic loci.
The presence of two IMI nucleic acids in Teal 15A provides increased tolerance to imidazolinone herbicides compared to a line such as BW755 carrying only one IMI nucleic acid. This increased tolerance is reflected both in less injury at higher herbicide rates, but in having more uninhibited AHAS enzyme activity.
Combining three non-allelic genes each conferring tolerance to imidazolinone herbicides results in greater tolerance than with only two non-allelic genes (FIG. 7).

Test [2] concerns wheat plants (Triticum aestivum L. cv CDC Teal and mutant lines). In words: Whole-plant reaction to imazamox spray (resistant / intermediate / susceptible rating). Format: in vivo. An excerpt: Approximately 40,000 seeds of Triticum aestivum L. cv CDC Teal (Hughes and Hucl, 1993 Can. J. Plant Sci. 73:193-197) were mutagenized using modified procedures described by Washington and Sears (1970). Seeds were pre-soaked in distilled water for four hours, followed by treatment with 0.3% EMS for six hours. Seeds were rinsed continually with tap water for seven hours and allowed to dry for approximately four hours before being planted in the field. The M1 plants were selfed and the seed was harvested in bulk. Approximately 2×10^6 M2 plants were grown in the field the following year and were sprayed at the two leaf stage with imazamox at a rate of 40 g ai ha^−1 in a spray volume of 100 L ha^−1. Merge 0.05% (v/v) adjuvant was added to the spray solution. Six lines resistant to imazamox were selected and designated as lines 1A, 9A, 10A, 11A, 15A, and 16A. The M3 and M4 generations were grown in a walk-in growth chamber and plants resistant to imazamox were selected using rates of 20 g ai ha^−1. Resistant plants were selected in the M5 generation after application of 40 g ai ha^−1 in the field. M5 seed was homozygous for the trait, as progeny testing detected no segregation for resistance to imazamox.
To determine the genetic control of resistance to imazamox in the six wheat lines, reciprocal crosses between the six homozygous resistant M6 lines and CDC Teal (susceptible to imazamox) were made. Randomly selected F1 plants from each of the crosses were backcrossed to CDC Teal to form backcross (BC)F1 populations. To investigate allelism, all possible inter-crosses between the six mutants and SWP965001 (Grandin/3*Fidel—FS-4) were made. SWP965001 is a spring wheat line that is homozygous for the FS-4 allele. Parental genotypes were grown in a walk-in growth chamber with a 16 hour photoperiod and a 24° C. day and 16° C. night temperature regime. Spikes that were ¾ emerged from the boot were emasculated and then pollinated 2-3 days after the emasculation date. Randomly selected F2 plants from all segregating crosses were selfed to produce F2:3 families. Parental, F1, BCF1, F2 plants and F2:3 families were tested for reaction to imazamox. All experiments were conducted in a walk-in growth chamber with a 16 hour photoperiod and a 23° C. day and 16° C. night temperature regime. A completely random design was used for all experiments. In experiments involving F2:3 families, effort was taken to randomize both within and among families. The F1 and F2 populations were screened in the same experiment along with parental genotypes and CDC Teal as controls. Both the BCF1 and F2:3 populations were screened in two separate experiments along with appropriate parental genotypes as controls.
Herbicide treatments were applied to plants growing in 8×16 cell flats at the two leaf stage using a traveling cable sprayer calibrated to spray 100 L ha^−1. Imazamox was applied to plants at a rate of 20 g ai ha^−1 using an 8001 EVS nozzle at a pressure of 275 kPa. Merge surfactant (0.05% v/v) was added to the herbicide solution prior to application. Fifteen days after herbicide application, plants were rated based on parental reactions and were considered as resistant, intermediate, or susceptible. […] For Mendelian analysis of the segregating populations, plants were scored into resistant and susceptible categories and tested for goodness of fit to various 1 gene, 2 gene and 3 gene models using chi-square analysis. […]

Turning to `COc1nc(C)nc(NC(=O)NS(=O)(=O)c2ccccc2Cl)n1` [chlorsulfuron], the “resistance to foliar applications relative to single mutation plants” value in the test with Nicotiana tabacum plants was “five-fold more resistant”.

As for `COCc1cnc(C2=NC(C)(C(C)C)C(=O)N2)c(C(=O)O)c1` (stereo not shown) [imazamox], the plant injury entry was “all treated one gene plants were injured” in test [1] (10× rate (200 g/ha), one gene plants (BW755, FS4)); “no two gene plants were injured” in test [1] (10× rate (200 g/ha), two gene plants (Teal 15A)); “all plants of the homozygous population of Teal15A sustained injury” in test [1] (30× rate (600 g/ha), homozygous population of Teal15A); “over half of plants sustained no injury” in test [1] (30× rate (600 g/ha), still-segregating selfed population of Teal15A crossed with Teal11A). Also, the reaction to imazamox result in test [2] (CDC Teal (wild type parent)) is reported as “susceptible”; in test [2] (F1 plants of resistant lines crossed with CDC Teal, except 15A×Teal, 20 g ai ha^−1) it was “intermediate reaction”; in test [2] (fourteen F1 plants from 15A×Teal cross, 20 g ai ha^−1), “resistant”; in test [2] (selected lines 1A, 9A, 10A, 11A, 15A, 16A, M2 plants in field, two leaf stage, 40 g ai ha^−1), “resistant”. Further, the “survival after application of imazamox” value in test [2] (F1 plants of reciprocal crosses between resistant lines and CDC Teal, 20 g ai ha^−1) is on record as “survived”.
